26 compounds from ChEMBL document CHEMBL3822444, “Synthesis and cytotoxic evaluation of novel indenoisoquinoline-substituted triazole hybrids” (Bioorg Med Chem Lett, 2016) can be followed below.

The subject of experiment [1] is KB. The experiment can be described thus: Cytotoxicity against human KB cells assessed as growth inhibition measured after 3 days by MTT assay. The following applies: 72 h. The class given is functional, cell-based. A general note: Tetrazolium assays rely on reduction of a dye to a coloured formazan, in cell work by metabolically active cells.
Experiment [2] concerns HepG2. The experiment can be described thus: Cytotoxicity against human HepG2 cells assessed as growth inhibition measured after 3 days by MTT assay. The class given is functional, cell-based. The following applies: HepG2, 72 h.

Molecules are shown by their SMILES.

The IC50 is the concentration needed to halve the response being measured. Turning to `O=C1c2ccccc2-c2c1c1ccccc1c(=O)n2CC(O)Cn1cc(CO)nn1` (stereo unspecified), the IC50 is 2.86 µM in experiment [1] and 0.74 µM in experiment [2]. The corresponding values for `O=C1c2ccccc2-c2c1c1ccccc1c(=O)n2Cc1cn(CC(O)Cn2c3c(c4ccccc4c2=O)C(=O)c2ccccc2-3)nn1` (stereo unspecified) are 2.89 µM and 2.29 µM. The corresponding values for `Cc1ccc(NC(=O)c2ccc(Cn3cc(Cn4c5c(c6ccccc6c4=O)C(=O)c4ccccc4-5)nn3)cc2)cc1Nc1nccc(-c2cccnc2)n1` are 1.56 µM and 2.33 µM. Take `Cc1cn([C@H]2C[C@H](n3cc(COC(=O)[C@H](Cc4ccccc4)n4c5c(c6ccccc6c4=O)C(=O)c4ccccc4-5)nn3)[C@@H](CO)O2)c(=O)[nH]c1=O`: the values for the IC50 in experiment [1] and in experiment [2] were 0.49 µM and 0.48 µM, respectively. The corresponding values for `O=C(OCc1cn(CC(O)Cn2c3c(c4ccccc4c2=O)C(=O)c2ccccc2-3)nn1)c1ccc(Cl)cc1` (stereo unspecified) are 10.5 µM and 9.75 µM. The corresponding values for `Cc1ccc(S(=O)(=O)Nc2cccc(-c3cn(CC(O)Cn4c5c(c6ccccc6c4=O)C(=O)c4ccccc4-5)nn3)c2)cc1` (stereo unspecified) are 89.9 µM and 69.8 µM. `CC(=O)OCc1cn(CC(Cn2c3c(c4ccccc4c2=O)C(=O)c2ccccc2-3)OC(C)=O)nn1` (stereo unspecified): the IC50 in experiment [1] is 18.6 µM; in experiment [2], 19 µM.

Take `[N-]=[N+]=NCC(O)Cn1c2c(c3ccccc3c1=O)C(=O)c1ccccc1-2` (stereo unspecified): the results for the IC50 in experiment [1] and in experiment [2] were 42 µM and 45 µM, respectively.

Take `CC(=O)NCc1cn(CC(O)Cn2c3c(c4ccccc4c2=O)C(=O)c2ccccc2-3)nn1` (stereo unspecified): the results for the IC50 in experiment [1] and in experiment [2] were 14.1 µM and 9.04 µM, respectively. The corresponding values for `O=C1c2ccccc2-c2c1c1ccccc1c(=O)n2CC(O)Cn1cc(CN2CCOCC2)nn1` (stereo unspecified) are 1.56 µM and 10.2 µM. The corresponding values for `NCc1cn(CC(O)Cn2c3c(c4ccccc4c2=O)C(=O)c2ccccc2-3)nn1` (stereo unspecified) are 50 µM and 195 µM.

`CC(=O)Nc1cccc(-c2cn(CC(Cn3c4c(c5ccccc5c3=O)C(=O)c3ccccc3-4)OC(C)=O)nn2)c1` (stereo unspecified): the concentration for half-maximal inhibition (IC50) in experiment [1] and in experiment [2] was more than 234 µM each time. With `Cc1cn([C@H]2C[C@H](n3cc(COC(=O)Cn4c5c(c6ccccc6c4=O)C(=O)c4ccccc4-5)nn3)[C@@H](CO)O2)c(=O)[nH]c1=O`, the IC50 in experiment [1] and in experiment [2] was 26.2 µM throughout. As for `O=C(NCc1cn(CC(O)Cn2c3c(c4ccccc4c2=O)C(=O)c2ccccc2-3)nn1)c1ccc(Br)cc1` (stereo unspecified), the IC50 worked out at 56.7 µM in experiment [1] and 43.8 µM in experiment [2]. The corresponding values for `O=C1c2ccccc2-c2c1c1ccccc1c(=O)n2CC(O)Cn1cc(CBr)nn1` (stereo unspecified) are 0.79 µM and 0.76 µM. The corresponding values for `O=C(OCc1cn(CC(O)Cn2c3c(c4ccccc4c2=O)C(=O)c2ccccc2-3)nn1)c1ccc(Br)cc1` (stereo unspecified) are 6.28 µM and 4.27 µM. `Nc1cccc(-c2cn(CC(O)Cn3c4c(c5ccccc5c3=O)C(=O)c3ccccc3-4)nn2)c1` (stereo unspecified): the values for the IC50 in experiment [1] and in experiment [2] were 15.3 µM and 32 µM, respectively.

Turning to `Cc1ccc(S(=O)(=O)NCc2cn(CC(O)Cn3c4c(c5ccccc5c3=O)C(=O)c3ccccc3-4)nn2)cc1` (stereo unspecified), the IC50 in experiment [1] and in experiment [2] was 115 µM throughout. Consider `Cc1cn([C@H]2C[C@H](n3cc(Cn4c5c(c6ccccc6c4=O)C(=O)c4ccccc4-5)nn3)[C@@H](CO)O2)c(=O)[nH]c1=O`, for which the results for the IC50 in experiment [1] and in experiment [2] were 0.79 µM and 0.64 µM, respectively.

As for `Cc1cn([C@H]2C[C@H](n3cc(COC(=O)[C@H](CC(C)C)n4c5c(c6ccccc6c4=O)C(=O)c4ccccc4-5)nn3)[C@@H](CO)O2)c(=O)[nH]c1=O`, the IC50 in experiment [1] was 0.75 µM; in experiment [2], 2.25 µM. With `COc1ccc(C(=O)OCc2cn(CC(O)Cn3c4c(c5ccccc5c3=O)C(=O)c3ccccc3-4)nn2)cc1` (stereo unspecified), the results for the IC50 in experiment [1] and in experiment [2] were 11.2 µM and 11.9 µM, respectively.

`Cc1cn([C@H]2C[C@H](n3cc(COC(=O)[C@H](CO)n4c5c(c6ccccc6c4=O)C(=O)c4ccccc4-5)nn3)[C@@H](CO)O2)c(=O)[nH]c1=O`: the IC50 came to 0.35 µM in experiment [1] and 1.18 µM in experiment [2].

Take `CC(C)C(=O)NCc1cn(CC(O)Cn2c3c(c4ccccc4c2=O)C(=O)c2ccccc2-3)nn1` (stereo unspecified): the IC50 in experiment [1] was found to be 123 µM; in experiment [2] it was 22.1 µM. Regarding `Cc1cn([C@@H]2C[C@@H](n3cc(COC(=O)[C@@H](Cc4c[nH]c5ccccc45)n4c5c(c6ccccc6c4=O)C(=O)c4ccccc4-5)nn3)[C@H](CO)O2)c(=O)[nH]c1=O` (single isomer, unassigned), the IC50 in experiment [1] is 21.6 µM; in experiment [2], 84.5 µM.

Regarding `Cc1c2ccncc2c(C)c2c1[nH]c1ccccc12` [ELLIPTECINE], the IC50 in experiment [1] came out at 1.26 µM; in experiment [2], 1.46 µM. Consider `Cc1cn([C@H]2C[C@H](N=[N+]=[N-])[C@@H](CO)O2)c(=O)[nH]c1=O` [ZIDOVUDINE], for which the IC50 in experiment [2] was more than 479 µM.
